SMILES strings stand for the structures. Where a SMILES comes first, the peptide text is derived from it. [ ]: non-standard residue; d: D form. The star is where a group is joined. Nle = CCCC[C@H](N)C(=O)O; Cbz = O=C(OCc1ccccc1)*

Consider two molecules from US20050112562A1, “Inhibition of retroviral replication through modulation of the host cell ubiquitylation” (Rigel Pharmaceuticals, Inc., priority 2003, published 2005).

Holding throughout (format): cell-based
The subject of test [1] is vif-mediated degradation of the luciferase/apobec3G fusion protein in HeLa cells. The experiment in a line: co-transfection of luciferase/apobec3G and vif constructs at varied ratios, luciferase activity (FIG. 4). The settings on record: for luciferase activity: 10 μM or 20 μM inhibitor, luciferase/apobec3G:vif 50:1 (tested 2:1, 25:1, 50:1, 100:1). As for the experimental part: Cells were co-transfected with the luciferase/apobec3G and vif constructs at relative concentrations of 2:1, 25:1, 50:1 and 100:1 (luciferase/apobec3G:vif) in the presence or absence of 10 μM or 20 μM MG132 or ALLN, known inhibitors of proteosome-mediated protein degradation.

Test [2] has as its system vif-mediated degradation of the luciferase/apobec3G fusion protein. The experiment in a line: transient luciferase/apobec3G fusion reporter with co-introduced vif construct (chemiluminescence, western blot). The following applies: Phoenix and HeLa cells; band in final lane of each western blot. An excerpt:
A construct encoding a luciferase/apobec3G fusion protein was introduced into Phoenix and HeLa cells and transient expression of the luciferase/apobec3G fusion protein was monitored by detecting chemiluminescence. Results were normalized to the number of cells assayed. […] The gels shown at the top of both FIGS. 3A and 3B show results obtained from western blots of cell extracts using antibodies. Tesults obtained using anti-apobec3G and anti-lactate dehydrogenase antibodies are indicated as “3G” and “LDH”, respectively.
This phenomenon is inhibited by adding MG132, a known inhibitor of proteosome-mediated protein degradation (see the band observed in the final lane of each of the western blots). Cells containing both vif and a luciferase/apobec3G reporter can therefore be used to test agents for vif-inhibitory activity.

For test [3], the system named is vif activity. The experiment in a line: vif expressed from different vectors with luciferase/apobec3G in a cell (FIGS. 5A-5E). The settings on record: vif from pCMV, pcDNA6, pcDNA6 CTE, pEF6, pEF6 CTE constructs.

Take `CCCC[C@@H](C=O)NC(=O)[C@H](CC(C)C)NC(=O)[C@H](CC(C)C)NC(C)=O` [ALLN] (Ac-Leu-Leu-[Nle]-aldehyde): in test [1], the luciferase activity entry is “maximally increased luciferase activity”.
Consider `CC(C)C[C@@H](C=O)NC(=O)[C@H](CC(C)C)NC(=O)[C@H](CC(C)C)NC(=O)OCc1ccccc1` [MG132] (Cbz-Leu-Leu-Leu-aldehyde), for which the “vif-caused decrease in luciferase activity / degradation of the luciferase/apobec3G fusion protein” value in test [2] was “inhibited”. The luciferase activity result in test [1] was “maximally increased luciferase activity”. For the same molecule, the “activity of an apobec3G-luciferase fusion” value in test [1] (in the presence of apobec3G/vif in HeLa cells (FIG. 4 legend)) is on record as “increased activity”. For the same molecule, the “modulation of vif activity” value in test [3] is on record as “could be modulated”.
